The compounds below were run against CYP2D6 (Homo sapiens, UniProt P10635) (assay: Inhibition of CYP2D6 at 10 uM).
Chain of CYP2D6 (P10635 whole entry): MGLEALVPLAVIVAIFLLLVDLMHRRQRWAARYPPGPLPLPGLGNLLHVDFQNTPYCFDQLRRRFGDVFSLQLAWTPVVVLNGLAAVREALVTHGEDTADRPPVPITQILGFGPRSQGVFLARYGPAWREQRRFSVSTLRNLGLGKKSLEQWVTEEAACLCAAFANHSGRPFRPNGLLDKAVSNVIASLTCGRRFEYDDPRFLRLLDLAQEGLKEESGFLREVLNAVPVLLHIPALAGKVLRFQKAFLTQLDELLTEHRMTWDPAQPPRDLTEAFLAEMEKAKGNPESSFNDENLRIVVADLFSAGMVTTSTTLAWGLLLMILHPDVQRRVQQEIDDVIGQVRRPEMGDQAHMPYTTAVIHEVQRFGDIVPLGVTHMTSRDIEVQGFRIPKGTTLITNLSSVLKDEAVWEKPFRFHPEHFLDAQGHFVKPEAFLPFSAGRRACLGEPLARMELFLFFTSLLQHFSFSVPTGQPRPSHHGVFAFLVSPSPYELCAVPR
Type: ADME
For `CCC(CC)C(=O)Nc1ccc(N2CCN(C(C(=O)N(CC)CC)c3ccccc3)CC2)c(C#N)c1` (racemic; 34), the inhibition at 10 µM was greater than 75%.

What follows are compounds tested against T1, Neuropeptide Y receptor type 2 (Homo sapiens, UniProt P49146) (assay: Displacement of [125I]PYY from human NPY Y2 receptor expressed endogenously in KAN-Ts cells by scintillation counting).
T1 sequence (P49146 whole entry): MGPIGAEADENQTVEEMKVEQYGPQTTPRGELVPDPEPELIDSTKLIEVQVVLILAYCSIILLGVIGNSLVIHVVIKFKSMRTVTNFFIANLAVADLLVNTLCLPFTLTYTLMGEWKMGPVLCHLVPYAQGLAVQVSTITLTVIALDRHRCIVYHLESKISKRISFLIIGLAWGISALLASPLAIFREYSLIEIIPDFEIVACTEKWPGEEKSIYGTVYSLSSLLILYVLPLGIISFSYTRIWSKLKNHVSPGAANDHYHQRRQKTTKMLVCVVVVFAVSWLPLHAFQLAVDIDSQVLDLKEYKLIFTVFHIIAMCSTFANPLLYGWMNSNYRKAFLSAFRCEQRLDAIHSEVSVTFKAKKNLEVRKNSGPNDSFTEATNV
Type: cell-based
`COC(=O)C(c1ccccc1)N1CCN(c2ccc(NC(=O)c3ccccc3-c3ccncc3)cc2F)CC1` (stereo not drawn) showed an IC50 of 37 nM.
For `COC(=O)C(c1ccccc1)N1CCN(c2ccc(NC(=O)c3ccccc3-c3cccnc3)cc2F)CC1` (stereo not drawn), the IC50 was 40 nM.
In the case of `CCNC(=O)C(c1ccccc1)N1CCN(c2ccc(NC(=O)c3ccccc3-c3cccnc3)cc2F)CC1` (stereo not drawn), the IC50 is reported as 42 nM.
Work on `CCNC(=O)C(c1ccccc1)N1CCN(c2ccc(NC(=O)C(CC)CC)cc2F)CC1` (stereo not drawn) yielded an IC50 of 370 nM.
`COC(=O)C(c1ccccc1)N1CCN(c2ccc(NC(=O)c3ccccc3-c3ccncc3)cc2)CC1` (stereo not drawn) showed an IC50 of 240 nM.
Compound `CCNC(=O)C(c1ccccc1)N1CCN(c2ccc(NC(=O)c3ccccc3-c3ccccc3)cc2F)CC1` (stereo not drawn) has an IC50 of 35 nM.
`CCC(CC)C(=O)Nc1ccc(N2CCN(C(C(=O)N(CC)CC)c3ccccc3)CC2)c(C#N)c1` (racemic; 32) showed an IC50 of 200 nM.
`CCOc1ccc(NC(=S)N2CCC(C(O)(c3ccccc3)c3ccccc3)CC2)cc1` was tested, and the IC50 was 200 nM.
`CCN(CC)C(=O)C(c1ccccc1)N1CCN(c2ccc(NC(=O)c3ccccc3-c3ccccc3)cc2F)CC1` (racemic) was tested, and the IC50 was 10 nM.
Work on `COC(=O)C(c1ccccc1)N1CCN(c2ccc(NC(=O)c3ccccc3-c3cccnc3)cc2)CC1` (stereo not drawn) yielded an IC50 of 220 nM.
`CCC(CC)C(=O)Nc1ccc(N2CCN(C(C(=O)OC)c3ccccc3)CC2)c(F)c1` (stereo not drawn) gave an IC50 of 165 nM.
`CCN(CC)C(=O)[C@@H](c1ccccc1)N1CCN(c2ccc(NC(=O)c3ccccc3-c3cccnc3)cc2F)CC1` showed an IC50 of 9 nM.
With `CCN(CC)C(=O)C(c1ccccc1)N1CCN(c2ccc(NC(=O)c3ccccc3-c3cccnc3)cc2F)CC1` (racemic) the IC50 was 6 nM.
`CCNC(=O)C(c1ccccc1)N1CCN(c2ccc(NC(=O)c3ccccc3-c3ccccc3)cc2C#N)CC1` (stereo not drawn) gave an IC50 of 11 nM.
Compound `CCN(CC)C(=O)C(c1ccccc1)N1CCN(c2ccc(NC(=O)c3ccccc3-c3ccccc3)cc2C#N)CC1` (racemic; 30) has an IC50 of 8 nM.
`COC(=O)C(c1ccccc1)N1CCN(c2ccc(NC(=O)c3ccccc3-c3ccccc3)cc2C#N)CC1` (stereo not drawn) showed an IC50 of 25 nM.
`CCN(CC)C(=O)C(c1ccccc1)N1CCN(c2ccc(NC(=O)c3ccccc3-c3ccccc3)cc2C#N)CC1` (racemic; 28) showed an IC50 of 37 nM.
`COC(=O)C(c1ccccc1)N1CCN(c2ccc(NC(=O)c3ccccc3-c3ccccc3)cc2C)CC1` (stereo not drawn) was tested, and the IC50 was 100 nM.
With `COC(=O)C(c1ccccc1)N1CCN(c2ccc(NC(=O)c3ccccc3-c3ccccc3)cc2)CC1` (stereo not drawn) the IC50 was 530 nM.
For `CCC(CC)C(=O)Nc1ccc(N2CCN(C(C(=O)N(CC)CC)c3ccccc3)CC2)c(F)c1` (racemic), the IC50 was 50 nM.
For `COC(=O)C(c1ccccc1)N1CCN(c2ccc(NC(=O)c3ccccc3-c3ccccc3)cc2F)CC1` (stereo not drawn), the IC50 was 52 nM.
`CCNC(=O)C(c1ccccc1)N1CCN(c2ccc(NC(=O)c3ccccc3-c3cccnc3)cc2C#N)CC1` (stereo not drawn) gave an IC50 of 30 nM.
In the case of `CCC(CC)C(=O)Nc1ccc(N2CCN(C(C(=O)N(CC)CC)c3ccccc3)CC2)c(C#N)c1` (racemic; 34), the IC50 is reported as 13 nM.
Work on `COc1cccnc1C(=O)N1CCN(c2ccc(NC(C)(C)c3ccccc3)cc2Cl)CC1` yielded an IC50 of 25 nM.
`CCN(CC)C(=O)[C@H](c1ccccc1)N1CCN(c2ccc(NC(=O)c3ccccc3-c3cccnc3)cc2F)CC1` was tested, and the IC50 was 14 nM.
Compound `CCNC(=O)C(c1ccccc1)N1CCN(c2ccc(NC(=O)C(CC)CC)cc2C#N)CC1` (stereo not drawn) has an IC50 of 150 nM.

Each compound was assayed against CYP2C9 (Homo sapiens, UniProt P11712) (assay: Inhibition of CYP2C9 at 10 uM).
Chain of CYP2C9 (P11712 whole entry): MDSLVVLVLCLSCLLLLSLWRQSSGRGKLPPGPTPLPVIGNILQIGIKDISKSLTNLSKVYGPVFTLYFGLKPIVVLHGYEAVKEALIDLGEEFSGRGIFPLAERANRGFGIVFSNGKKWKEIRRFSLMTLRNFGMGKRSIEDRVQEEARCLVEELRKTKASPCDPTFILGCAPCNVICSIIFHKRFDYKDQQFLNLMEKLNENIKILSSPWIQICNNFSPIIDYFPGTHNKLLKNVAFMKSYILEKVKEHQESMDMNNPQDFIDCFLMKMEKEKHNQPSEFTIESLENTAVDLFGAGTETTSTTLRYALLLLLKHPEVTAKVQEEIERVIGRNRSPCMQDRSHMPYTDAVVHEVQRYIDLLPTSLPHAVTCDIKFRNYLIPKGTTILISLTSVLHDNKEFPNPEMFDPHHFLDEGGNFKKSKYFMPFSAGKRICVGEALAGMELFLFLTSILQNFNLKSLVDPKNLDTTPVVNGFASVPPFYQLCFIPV
Type: ADME
Work on `CCC(CC)C(=O)Nc1ccc(N2CCN(C(C(=O)N(CC)CC)c3ccccc3)CC2)c(C#N)c1` (racemic; 34) yielded an inhibition at 10 µM greater than 75%.

— ChEMBL document CHEMBL1821563, “The discovery and synthesis of JNJ 31020028, a small molecule antagonist of the Neuropeptide Y Y₂ receptor” (Bioorg Med Chem Lett, 2011)
